The numbers were not newly measured in publication PMC10576142, “Intrinsic structural dynamics dictate enzymatic activity and inhibition” (Proceedings of the National Academy of Sciences of the …, 2023), which cites them from elsewhere.

The subject of the series is HDAC8. Details: method as in PMID 24079912.

Consider `CC(/C=C/C(=O)NO)=C\[C@@H](C)C(=O)c1ccc(N(C)C)cc1` [TCSA, trichostatin A], for which the overall off-rate was 0.1 s⁻¹.
